Experimental data from US12011460B2, “Expansion of NK and DC cells in vivo mediating immune response” (UNIVERSITE DE MONTREAL, priority 2018, dated 2024).

The compounds below were run on CD34 + CD45RA- cells (assay: Expansion of CD34+CD45RA- cells compared to DMSO (EC50)). Settings: concentration of compound necessary to expand 50% more of CD34+CD45RA- cells as compared to cells treated with DMSO.
Assay type: cell-based

SMILES | EC50 [nM]
COC(=O)c1ccc2c(c1)[nH]c1nc(Cc3cccc(C)c3)nc(NCCCN3CCCCC3)c12 [Compound 1] | 38
COC(=O)c1ccc2c(c1)[nH]c1nc(Cc3cccc(F)c3)nc(NCCCN3CCCCC3)c12 [Compound 2] | 20
COC(=O)c1ccc2c(c1)[nH]c1nc(Cc3cccs3)nc(NCCCN3CCCCC3)c12 [Compound 3] | 8
CCOC(=O)c1ccc2c(c1)[nH]c1nc(Cc3ccccc3)nc(NCCCN3CCCCC3)c12 [Compound 5] | 154
COC(=O)c1ccc2c(c1)[nH]c1nc(Cc3cccc(C(O)C(F)(F)F)c3)nc(NCCCN3CCCCC3)c12 (centres unmarked) [Compound 6] | 16
COC(=O)c1ccc2c(c1)[nH]c1nc(Cc3cccc(C(=O)C(F)(F)F)c3)nc(NCCCN3CCCCC3)c12 [Compound 7] | 31
COC(=O)c1ccc2c(c1)[nH]c1nc(Cc3ccc4ccccc4c3)nc(NCCCN3CCCCC3)c12 [Compound 8] | 150
C#CCOC(CNc1nc(Cc2ccccc2)nc2[nH]c3cc(C(=O)OC)ccc3c12)CN1CCCCC1 (centres unmarked) [Compound 9] | 24
COC(=O)c1ccc2c(c1)[nH]c1nc(Cc3ccccc3)nc(NCC(O)CN3CCCCC3)c12 (centres unmarked) [Compound 10] | 7
COC(=O)c1ccc2c(c1)[nH]c1nc(Cc3ccccc3)nc(NCCCN(C)CC(O)COCc3ccccc3)c12 (centres unmarked) [Compound 11] | 101
CNC(=O)c1ccc2c(c1)[nH]c1nc(Cc3ccccc3)nc(NCCCN3CCCCC3)c12 [Compound 12] | 2440
COC(=O)c1ccc2c(c1)[nH]c1nc(Cc3ccccc3)nc(CCCCN3CCCCC3)c12 [Compound 17] | 15
COC(=O)c1ccc2c(c1)[nH]c1nc(C(C)c3ccccc3)nc(NCCCN3CCCCC3)c12 (centres unmarked) [Compound 18] | 67
COC(=O)c1ccc2c(c1)[nH]c1nc(Cc3cccc(CO)c3)nc(NCCCN(C)CCCN)c12 [Compound 19] | 38
COC(=O)c1ccc2c(c1)[nH]c1nc(Cc3cccc(CC(=O)O)c3)nc(NCCCN(C)CCCN)c12 [Compound 20] | 113
COC(=O)c1ccc2c(c1)[nH]c1nc(Cc3ccccc3)nc(NCCCN(C)CCCNc3ncnc4[nH]c5ccccc5c34)c12 [Compound 21] | 19
CN1CCN(c2ccc(CNc3nc(Cc4ccccc4)nc4[nH]c5cc(-c6nnn(C)n6)ccc5c34)cc2)CC1 [Compound 22] | 100
CN(CCCN)CCCNc1nc(Cc2ccccc2Br)nc2[nH]c3cc(-c4nnn(C)n4)ccc3c12 [Compound 24] | 51
CN(CCCN)CCCNc1nc(Cc2cccc(Br)c2)nc2[nH]c3cc(-c4nnn(C)n4)ccc3c12 [Compound 25] | 115
Cn1nnc(-c2cnc3c(c2)[nH]c2nc(Cc4ccccc4)nc(N[C@H]4CC[C@H](N)CC4)c23)n1 [Compound 27] | 367
Cn1nnc(-c2ccc3c(c2)[nH]c2ncnc(NCCCCN4CCCCC4)c23)n1 [Compound 29] | 36

SMILES | EC50 [nM]
CCN(CC)CCN(CC)c1nc(Cc2ccccc2)nc2[nH]c3cc(C(=O)OC)cnc3c12 [Compound 31] | 394
C#Cc1cccc(Cc2nc(NCCN(C)CCN)c3c(n2)[nH]c2cc(-c4nnn(C)n4)ccc23)c1 [Compound 32] | 104
COC(=O)c1ccc2c(c1)[nH]c1cc(Cc3cccc(O)c3)nc(NCCCCN3CCCC3)c12 [Compound 35] | 44
COC(=O)c1ccc2c(c1)[nH]c1nc(Cc3ccccc3)nc(NCCN(C)C(C)=O)c12 [Compound 37] | 83
COC(=O)c1ccc2c(c1)[nH]c1cc(Cc3cccnc3)cc(NCCCN3CCOCC3)c12 [Compound 38] | 704
COC(=O)c1ccc2c(c1)[nH]c1cc(Cc3ccsc3)nc(N[C@H]3CC[C@H](N)CC3)c12 [Compound 39] | 114
COC(=O)c1ccc2c(c1)[nH]c1nc(Cc3ccccc3)nc(NCCCCCN(C)C)c12 [Compound 40] | 2
COC(=O)c1ccc2c(c1)[nH]c1nc(Cc3ccccc3)nc(NCCCCCCCCN)c12 [Compound 41] | 39
COC(=O)c1ccc2c(c1)[nH]c1nc(Cc3ccccc3)nc(NCCN3CCOCC3)c12 [Compound 42] | 12
CNS(=O)(=O)c1cccc(Nc2ncnc3[nH]c4cc(C(=O)OC)ccc4c23)c1 [Compound 43] | 263
COC(=O)c1ccc2c(c1)[nH]c1nc(Cc3ccccc3)nc(NCC(O)CO)c12 (centres unmarked) [Compound 44] | 59
COC(=O)c1ccc2c(c1)[nH]c1nc(Cc3ccccc3)nc(NCCN(C)CC(F)F)c12 [Compound 45] | 336
COC(=O)c1ccc2c(c1)[nH]c1nc(Cc3ccccc3)nc(NCCCO)c12 [Compound 47] | 26
COC(=O)c1ccc2c(c1)[nH]c1nc(Cc3ccccc3)nc(NCCS(N)(=O)=O)c12 [Compound 50] | 67
COC(=O)c1ccc2c(c1)[nH]c1nc(Cc3ccccc3)nc(NCC3CCCNC3)c12 (centres unmarked) [Compound 52] | 7
COC(=O)c1ccc2c(c1)[nH]c1nc(CCc3ccccc3)nc(NCCCN(C)CC(O)C[N+](C)(C)C)c12 (centres unmarked) [Compound 53] | 117
COC(=O)c1ccc2c(c1)[nH]c1nc(Cc3ccccc3)nc(NCC3CCCN(C(=O)OC)C3)c12 (centres unmarked) [Compound 55] | 79
COC(=O)c1ccc2c(c1)[nH]c1nc(Cc3ccccc3)nc(NCc3cnc(C)cn3)c12 [Compound 56] | 48
CCNCCNc1nc(Cc2ccccc2)nc2[nH]c3cc(C(=O)OC)ccc3c12 [Compound 57] | 4.8
COC(=O)c1ccc2c(c1)[nH]c1nc(Cc3ccccc3)nc(NCCC#N)c12 [Compound 58] | 79
COC(=O)c1ccc2c(c1)[nH]c1nc(Cc3ccccc3)nc(NCCNC3=NCCC3)c12 [Compound 59] | 75

Next, values leading:

EC50 [nM] | SMILES
14 | COC(=O)c1ccc2c(c1)[nH]c1nc(Cc3cccnc3)nc(NCCCN3CCCCC3)c12 [Compound 4]
68 | COC(=O)c1ccc2c(c1)[nH]c1nc(C(OC)c3ccccc3)nc(NCCCN3CCCCC3)c12 (centres unmarked) [Compound 13]
4 | COC(=O)c1ccc2c(c1)[nH]c1nc(C(O)c3ccccc3)nc(NCCCN3CCCCC3)c12 (centres unmarked) [Compound 14]
327 | COC(=O)c1ccc2c(c1)[nH]c1nc(Cc3ccccc3)nc(SCCCN3CCCCC3)c12 [Compound 15]
5 | COC(=O)c1ccc2c(c1)[nH]c1nc(C(=O)c3ccccc3)nc(SCCCN3CCCCC3)c12 [Compound 16]
249 | CN(CCCNC(=O)COCCOCCN)CCCNc1nc(Cc2ccccc2)nc2[nH]c3cc(-c4nnn(C)n4)ccc3c12 [Compound 23]
484 | CN(CCC[N+](C)(C)C)c1nc(Cc2ccccc2)nc2[nH]c3cc(-c4nnn(C)n4)ccc3c12 [Compound 26]
277 | Cn1nnc(-c2ccc3c(c2)[nH]c2ncnc(NCCCN4CCC(O)CC4)c23)n1 [Compound 28]
135 | CNCCCNc1ncnc2[nH]c3cc(-c4nnn(C)n4)ccc3c12 [Compound 30]
33 | COC(=O)c1ccc2c(c1)[nH]c1nc(Cc3ccccc3)nc(NCCNS(C)(=O)=O)c12 [Compound 33]
76 | COC(=O)c1ccc2c(c1)[nH]c1cc(Cc3cccc(OC)c3)nc(NCCCCN3CCCC3)c12 [Compound 34]
68 | [H]/N=C(/N)NCCNc1nc(Cc2ccccc2)nc2[nH]c3cc(C(=O)OC)ccc3c12 [Compound 36]
141 | Cn1nnc(-c2ccc3c(c2)[nH]c2nc(Cc4ccccc4)nc(NCCOCCO)c23)n1 [Compound 46]
61 | COC(=O)c1ccc2c(c1)[nH]c1nc(Cc3ccccc3)nc(NCCCN(C)CCCNC(=N)N)c12 [Compound 48]
41 | COC(=O)c1ccc2c(c1)[nH]c1nc(Cc3ccccc3)nc(NCCCN3C(=O)CCC3=O)c12 [Compound 49]
62 | CNS(=O)(=O)c1ccc(CNc2nc(Cc3ccccc3)nc3[nH]c4cc(C(=O)OC)ccc4c23)cc1 [Compound 51]
118 | COC(=O)c1ccc2c(c1)[nH]c1nc(Cc3ccccc3)nc(NCCCCO)c12 [Compound 54]
23 | COC(=O)c1ccc2c(c1)[nH]c1nc(Cc3ccccc3)nc(NNc3ccc(S(C)(=O)=O)cc3)c12 [Compound 60]
10.1 | COC(=O)c1ccc2c(c1)[nH]c1nc(Cc3ccccc3)nc(NCCN(C(C)C)C(C)C)c12 [Compound 61]

Each compound was assayed on cord blood derived CD34+ cells (assay: Ex vivo culture of cord blood derived CD34+ cells, graft composition by flow). Settings: expanded cord blood; UM171 35 nM, SR1 500 nM.
Assay type: cell-based, human

SMILES | dendritic cells population (CD86+CD34+) share of the graft
CC(C)n1cnc2c(NCCc3ccc(O)cc3)nc(-c3csc4ccccc34)nc21 [SR1] | less than 5%
